Conditions in the first data set: not given
The boiling point is the temperature at which the vapour pressure of the liquid equals the pressure above it. The term melting point denotes the temperature, or range, at which the solid turns liquid. For the compound `Cc1ccc(CC=O)cc1`, the boiling point came out at 222 °C and the melting point came to 40 °C.

In turn, `Clc1ccccc1-c1ccc(Cl)c(Cl)c1Cl` yielded a log10 Henry constant (atm·m³/mol) of -3.85.

For `COc1ccccc1OC`, the boiling point is 206 °C, the log10 Koc (L/kg) was 2.03, the log10 vapour pressure (mmHg) is -0.328 and the melting point came out at 22.5 °C. The ready biodegradability entry is reported as “readily biodegradable”.

`FC(F)(F)C(F)(F)Cl`: the boiling point is -37.9 °C, the log10 vapour pressure (mmHg) was determined as 3.84 and the melting point was -99.4 °C.

In the case of `CCCCCCn1c(=O)c2c(ncn2C)n(C)c1=O`, the melting point came to 82.5 °C.

`CC(CCCl)OCCCl` (configuration not stated): the boiling point came out at 195 °C.

For the compound `Cc1ccc([N+](=O)[O-])c(O)c1`, the log10 Henry constant (atm·m³/mol) was -4.89, the log10 vapour pressure (mmHg) was -1.7, the melting point stood at 53 °C and the ready biodegradability result was “not readily biodegradable”.

Compound `CN(N=O)c1ccccc1` returned a melting point of 14.7 °C.

`ClCc1ccc(Br)cc1`: the boiling point worked out at 236 °C and the melting point was 50 °C.

`c1cc2c(c3c1CCCC3)CCCC2` yielded a boiling point of 295 °C and a melting point of 16.7 °C.

`FC(F)F` yielded a boiling point of -82.1 °C, a log10 Henry constant (atm·m³/mol) of -1.02, a log10 vapour pressure (mmHg) of 4.55 and a melting point of -155 °C.

With `CCCCCCC(C)=O`, the boiling point is 172 °C, the log10 Henry constant (atm·m³/mol) was -3.73, the log10 vapour pressure (mmHg) turned out to be 0.13 and the melting point is -16 °C. The ready biodegradability entry is “readily biodegradable”.

`O=C(OCC(=O)N1CCOCC1)c1ccccc1` registered a melting point of 104 °C.

`CC(C)=CCCC(C)CCO` (configuration not stated) showed a log10 vapour pressure (mmHg) of -1.36.

`CN(C)C(=S)Cl` registered a melting point of 42.5 °C.

For `O=[N+]([O-])c1cc(Cl)c(Cl)c(Cl)c1Cl`, the log10 Koc (L/kg) was 4.23.

`CN1C(=O)c2ccc([N+](=O)[O-])cc2C1=O` gave a boiling point of 361 °C.

On to `CCCCCCCCCC(=O)Cl`, for which the melting point is -34.5 °C.

Regarding `CC(=O)O[C@@H](C(=O)O)c1ccccc1`, the melting point amounted to 97 °C.

Consider `O=C(O)c1ccncc1C(=O)O`, for which the melting point is 256 °C.

As to `C1=CCc2ccccc2C1`, the boiling point came to 212 °C and the melting point is 25 °C.

Turning to `CC[C@H]1CN2CCc3cc(OC)c(OC)cc3[C@@H]2C[C@@H]1C[C@@H]1NCCc2cc(O)c(OC)cc21`, the melting point was found to be 116 °C.

With `CCC=CC(C)(C)C`, the boiling point stood at 103 °C.

`C=CCNc1ccccc1` gave a boiling point of 219 °C.

Take `CC(=O)Nc1ccc(C=O)cc1`: the melting point came to 157 °C.

Take `OC[C@@H](O)[C@H](O)[C@@H](O)CO`: the melting point was determined as 98.8 °C and the ready biodegradability entry is “readily biodegradable”.

For `C=CCN1CCCC1CNC(=O)c1cc(S(=O)(=O)NC)c(N)cc1OC` (configuration not stated), the melting point is 169 °C.

`COC1CC1` gave a boiling point of 44.7 °C and a melting point of -119 °C.

With `Fc1c(F)c(F)c(Cl)c(F)c1F`, the boiling point was determined as 118 °C and the log10 vapour pressure (mmHg) came out at 1.25.

For `Nc1ncc2ncn(COCCO)c2n1`, the melting point worked out at 189 °C.

`O=C(C(Cl)(Cl)Cl)C(Cl)(Cl)Cl` had a boiling point of 203 °C and a melting point of -2 °C.

Regarding `CCC(CC)COC(=O)CCCCCCCC(=O)OCC(CC)CC`, the melting point was -45 °C.

Compound `Clc1cccc(Oc2ccc(Cl)c(Cl)c2)c1` had a log10 vapour pressure (mmHg) of -3.91.

Turning to `COP(=S)(OC)Oc1cc(Cl)c(Cl)cc1Cl`, the log10 vapour pressure (mmHg) was -4.12 and the melting point stood at 41 °C.

Compound `CC[N+](CC)(CC)CCOC(=O)C(C1CCCC1)C1CCCC1.[Br-]` had a melting point of 186 °C.

The compound `Oc1ccc(/C=C/c2cc(O)cc(O)c2)cc1` registered a melting point of 254 °C.

`CBr` gave a boiling point of 3.5 °C, a log10 Henry constant (atm·m³/mol) of -2.13, a log10 Koc (L/kg) of 1.34 and a log10 vapour pressure (mmHg) of 3.21. The melting point was -93.7 °C and the ready biodegradability entry is recorded as “not readily biodegradable”.

`Cn1ccccc1=S`: the melting point was found to be 89.5 °C.

As for `c1ccc2c(Oc3cccc4ccccc34)cccc2c1`, the melting point came out at 110 °C.

Take `Fc1cccc2[nH]nnc12`: the log10 Koc (L/kg) is 1.87.

In turn, `FC(F)(F)Cl` returned a boiling point of -81.4 °C, a log10 Henry constant (atm·m³/mol) of 0.14, a log10 vapour pressure (mmHg) of 4.33 and a melting point of -181 °C.

`CC(=O)c1ccccc1C(=O)O`: the melting point was found to be 114 °C.

The compound `Cc1c[nH]c2ccccc12` gave a boiling point of 266 °C, a log10 vapour pressure (mmHg) of -2.26 and a melting point of 97.5 °C.

As to `ON=Cc1ccc(F)cc1`, the melting point turned out to be 83.5 °C.

`CC(=O)OCC(C)OC(C)=O` (configuration not stated) showed a boiling point of 190 °C.

As to `CCOS(=O)(=O)OCC`, the boiling point stood at 208 °C, the log10 vapour pressure (mmHg) is -0.674, the melting point was -24 °C and the ready biodegradability entry is recorded as “readily biodegradable”.

For the compound `CCCCCCCCCCCCCCCCCCCCCCCCCCCCCCCC`, the boiling point turned out to be 467 °C, the log10 biodegradation half-life (days) was 2.45, the melting point amounted to 69.7 °C and the ready biodegradability entry is reported as “readily biodegradable”.

`CC(C)C(=O)c1ccccc1`: the boiling point is 220 °C and the melting point is -1.3 °C.

As for `CC1CC(CC2CCC(N)C(C)C2)CCC1N` (configuration not stated), the ready biodegradability result is “not readily biodegradable”.

As to `CC(C)OC(=O)Cl`, the boiling point came to 105 °C, the log10 vapour pressure (mmHg) was found to be 1.57 and the ready biodegradability result is “not readily biodegradable”.

`Cc1c(C)c(C)c(C(=O)O)c(C)c1C`: the melting point was determined as 210 °C.

Still in this data set, the particulars now being: fish.
On to `C=CCCC(CC)CCCC` (configuration not stated), for which the log10 biotransformation half-life (days) is 0.93.

`c1cc2c(c3c1CCCC3)CCCC2` yielded a log10 biotransformation half-life (days) of 0.76.

On to `O=[N+]([O-])c1cc(Cl)c(Cl)c(Cl)c1Cl`, for which the log10 BCF turned out to be 1.9 and the log10 biotransformation half-life (days) is -0.69.

In turn, `CCN(CC)c1ccc2c(-c3ccccc3C(=O)O)c3ccc(N(CC)CC)cc3[o+]c2c1` showed a log10 BCF of 0.23.

Consider `COP(=S)(OC)Oc1cc(Cl)c(Cl)cc1Cl`, for which the log10 BCF was 3.58 and the log10 biotransformation half-life (days) was 0.95.

Source of the values: the OPERA property sets (Mansouri et al. 2018).
